Data as given in patent publication US12167990B2, “Vitamin composition” (SOCIÉTË DES PRODUITS NESTLË S.A., priority 2016, dated 2024).

Assay: Storage test at 60° C. and 68% relative humidity, vitamin A analysed by UPLC
Assay type: physicochemical
Settings: storage at 60° C. and 68% RH; 0.825 wt. % vitamin A palmitate in oil; FIGS. 1 to 7
Experimental: Palm oil (SUNIA), and vitamin A palmitate (Vitamin A Palmitate 1.7 MIU/g-DSM) were heated in an oven at 60°. Vitamin A palmitate was not held above 60° C. for longer than 5 minutes to avoid possible degradation. The oil was mixed with vitamin A palmitate in a 0.5 liter Schott bottle and then stirred for 10 minutes in a 50° C. water bath. Initial vitamin A palmitate content was 0.825% in oil (a vitamin A palmitate content of 0.165 wt. % in powdered bran). The total amount of lipid was 100 g. A quantity of 10 g of lipid containing vitamin A palmitate was then mixed with 40 g of powdered rice bran with or without phytic acid (Herba Ingredients) in a mortar during 5 minutes. […]
A quantity of 10 g of lipid containing 0.825 wt. % of vitamin A palmitate was mixed with 40 g of wheat bran in a mortar during 5 minutes. […]
A quantity of 10 g of lipid containing 0.825 wt. % of vitamin A palmitate was mixed with 40 g of maltodextrin DE21 in a mortar during 5 minutes. […]
A quantity of 10 g of lipid containing 0.825 wt. % of vitamin A palmitate and 1.87 g of iron pyrophosphate powder were mixed with 38.13 g of powdered rice bran (Herba Ingredients) in a mortar during 5 minutes. […]
For the storage tests, the crystallizing dishes were transferred into a climatic chamber regulated at 60° C. and 68% relative humidity, before being analyzed. […]

CCCCCCCCCCCCCCCC(=O)OC/C=C(C)/C=C/C=C(C)/C=C/C1=C(C)CCCC1(C)C [vitamin A palmitate, retinyl palmitate]
vitamin A stability (degradation curves): very sensitive to temperature and degrades fast
